Laboratory results: patent US20240368173A1, “TRICYCLIC GPR65 MODULATORS” (PATHIOS THERAPEUTICS LIMITED, priority 2021, published 2024)

biological target: human recombinant GPR65 (Homo sapiens, UniProt Q8IYL9); experiment: Human GPR65 cAMP HTRF antagonist assay; type: cell-based; conditions: not given
How it was run: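 Antagonism measured as suppression of the cAMP rise when pH is dropped to 7.2 (control wells pH 7.9) in 1321N1 cells stably carrying human GPR65. Cells in KRH with 1 mM IBMX and 200 μM EDTA saw compound 30 min, then acid stimulation 30 min; HTRF cAMP detection, normalised, 4-parameter logistic IC50.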

human recombinant GPR65, sequence (Q8IYL9 whole entry): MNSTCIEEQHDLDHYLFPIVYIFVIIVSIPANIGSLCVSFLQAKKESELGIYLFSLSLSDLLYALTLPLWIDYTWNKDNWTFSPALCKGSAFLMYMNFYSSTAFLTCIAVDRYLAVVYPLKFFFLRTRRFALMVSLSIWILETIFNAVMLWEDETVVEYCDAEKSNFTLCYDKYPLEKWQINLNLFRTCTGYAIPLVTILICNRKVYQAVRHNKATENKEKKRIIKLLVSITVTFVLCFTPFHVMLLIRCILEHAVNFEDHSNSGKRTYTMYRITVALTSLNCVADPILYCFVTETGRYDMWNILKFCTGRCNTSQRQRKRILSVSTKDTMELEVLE

Compared with `CN1CCc2cc(-c3cc(F)c(NC(=O)N4[C@H]5CC[C@@H]4c4n[nH]c(=O)cc4C5)cc3Cl)ccc2C1=O` [Compound 175, (6S,9R)-N-(5-Chloro-2-fluoro-4-(2-methyl-1-oxo-1,2,3,4-tetrahydroisoquinolin-6-yl)phenyl)-3-oxo-3,5,6,7,8,9-hexahydro-2H-6,9-epiminocyclohepta[c]pyridazine-10-carboxamide], `O=C(Nc1cc(Cl)c(-c2ccc3cnoc3c2)cc1F)N1[C@H]2CC[C@@H]1c1n[nH]c(=O)cc1C2` [Compound 196, (6S,9R)-N-(4-(Benzo[d]isoxazol-6-yl)-5-chloro-2-fluorophenyl)-3-oxo-3,5,6,7,8,9-hexahydro-2H-6,9-epiminocyclohepta[c]pyridazine-10-carboxamide] is higher in IC50: less than 500 nM for the first, 500 to 5000 nM for the second. The first is the more potent here.

`O=C(Nc1cc(Cl)c(-c2ccc3nsnc3c2)cc1F)N1[C@H]2CC[C@@H]1c1c[nH]c(=O)cc1C2` [Compound 176, (6S,9R)-N-(4-(benzo[c][1,2,5]thiadiazol-5-yl)-5-chloro-2-fluorophenyl)-3-oxo-3,5,6,7,8,9-hexahydro-2H-6,9-epiminocyclohepta[c]pyridine-10-carboxamide] and `O=C(Nc1cc(Cl)c(-c2ccc3nsnc3c2)cc1F)N1[C@H]2CC[C@@H]1c1ccnc(F)c1C2` [Compound 177, (5R,8S)-N-(4-(benzo[c][1,2,5]thiadiazol-5-yl)-5-chloro-2-fluorophenyl)-1-fluoro-6,7,8,9-tetrahydro-5H-5,8-epiminocyclohepta[c]pyridine-10-carboxamide] cannot be ordered by IC50: less than 500 nM for the first, less than 500 nM for the second.

`O=C(Nc1cc(Cl)c(-c2cnc(F)nc2)cc1F)N1[C@H]2CC[C@@H]1c1n[nH]c(=O)cc1C2` [Compound 178, (6S,9R)-N-(5-Chloro-2-fluoro-4-(2-fluoropyrimidin-5-yl)phenyl)-3-oxo-3,5,6,7,8,9-hexahydro-2H-6,9-epiminocyclohepta[c]pyridazine-10-carboxamide] and `O=C(Nc1cc(Cl)c(-c2cc(F)cnc2F)cc1F)N1[C@H]2CC[C@@H]1c1n[nH]c(=O)cc1C2` [Compound 182, (6S,9R)-N-(5-Chloro-4-(2,5-difluoropyridin-3-yl)-2-fluorophenyl)-3-oxo-3,5,6,7,8,9-hexahydro-2H-6,9-epiminocyclohepta[c]pyridazine-10-carboxamide] cannot be ordered by IC50: less than 500 nM for the first, less than 500 nM for the second.

First: O=C(Nc1cc(Cl)c(-c2ncco2)cc1F)N1[C@H]2CC[C@@H]1c1n[nH]c(=O)cc1C2 [Compound 181, (6S,9R)-N-(5-Chloro-2-fluoro-4-(oxazol-2-yl)phenyl)-3-oxo-3,5,6,7,8,9-hexahydro-2H-6,9-epiminocyclohepta[c]pyridazine-10-carboxamide]
Second: O=C(Nc1cc(Cl)c(-c2ccccn2)cc1F)N1[C@H]2CC[C@@H]1c1n[nH]c(=O)cc1C2 [Compound 195, (6S,9R)-N-(5-Chloro-2-fluoro-4-(pyridin-2-yl)phenyl)-3-oxo-3,5,6,7,8,9-hexahydro-2H-6,9-epiminocyclohepta[c]pyridazine-10-carboxamide]
The IC50 of the first is higher: 500 to 5000 nM for the first, less than 500 nM for the second.

`COc1ccc(-c2cc(F)c(NC(=O)N3[C@H]4CC[C@@H]3c3c[nH]c(=O)cc3C4)cc2Cl)cn1` [Compound 184, (6S,9R)-N-(5-Chloro-2-fluoro-4-(6-methoxypyridin-3-yl)phenyl)-3-oxo-3,5,6,7,8,9-hexahydro-2H-6,9-epiminocyclohepta[c]pyridine-10-carboxamide] and `O=C(Nc1cc(Cl)c(-c2cncc(F)c2)cc1F)N1[C@H]2CC[C@@H]1c1c[nH]c(=O)cc1C2` [Compound 201, (6S,9R)-N-(5-Chloro-2-fluoro-4-(5-fluoropyridin-3-yl)phenyl)-3-oxo-3,5,6,7,8,9-hexahydro-2H-6,9-epiminocyclohepta[c]pyridine-10-carboxamide] cannot be ordered by IC50: less than 500 nM for the first, less than 500 nM for the second.

`COc1ccc(-c2cc(F)c(NC(=O)N3[C@H]4CC[C@@H]3c3ccnc(F)c3C4)cc2Cl)cn1` [Compound 185, (5R,8S)-N-(5-Chloro-2-fluoro-4-(6-methoxypyridin-3-yl)phenyl)-1-fluoro-6,7,8,9-tetrahydro-5H-5,8-epiminocyclohepta[c]pyridine-10-carboxamide] and `O=C(Nc1cc(Cl)c(-c2cncc(F)c2)cc1F)N1[C@H]2CC[C@@H]1c1ccnc(F)c1C2` [Compound 200, (5R,8S)-N-(5-Chloro-2-fluoro-4-(5-fluoropyridin-3-yl)phenyl)-1-fluoro-6,7,8,9-tetrahydro-5H-5,8-epiminocyclohepta[c]pyridine-10-carboxamide] cannot be ordered by IC50: less than 500 nM for the first, less than 500 nM for the second.

`O=C(Nc1ccc2nsnc2c1)N1[C@H]2CC[C@@H]1c1n[nH]c(=O)cc1C2` [Compound 186, (6S,9R)—N-(benzo[c][1,2,5]thiadiazol-5-yl)-3-oxo-3,5,6,7,8,9-hexahydro-2H-6,9-epiminocyclohepta[c]pyridazine-10-carboxamide] and `O=C(Nc1noc2ccccc12)N1[C@H]2CC[C@@H]1c1n[nH]c(=O)cc1C2` [Compound 187, (6S,9R)-N-(Benzo[d]isoxazol-3-yl)-3-oxo-3,5,6,7,8,9-hexahydro-2H-6,9-epiminocyclohepta[c]pyridazine-10-carboxamide] fall in the same range of IC50: 500 to 5000 nM for the first, 500 to 5000 nM for the second.

`COC(=O)c1cncc(-c2cc(F)c(NC(=O)N3[C@H]4CC[C@@H]3c3n[nH]c(=O)cc3C4)cc2Cl)c1` [Compound 188, Methyl 5-(2-chloro-5-fluoro-4-((6S,9R)-3-oxo-3,5,6,7,8,9-hexahydro-2H-6,9-epiminocyclohepta[c]pyridazine-10-carboxamido)phenyl)nicotinate] and `COc1cc(-c2cc(F)c(NC(=O)N3[C@H]4CC[C@@H]3c3n[nH]c(=O)cc3C4)cc2Cl)ccn1` [Compound 199, (6S,9R)-N-(5-Chloro-2-fluoro-4-(2-methoxypyridin-4-yl)phenyl)-3-oxo-3,5,6,7,8,9-hexahydro-2H-6,9-epiminocyclohepta[c]pyridazine-10-carboxamide] cannot be ordered by IC50: less than 500 nM for the first, less than 500 nM for the second.

`O=C(Nc1cc(Cl)c(-c2cnc3nonc3c2)cc1F)N1[C@H]2CC[C@@H]1c1c[nH]c(=O)cc1C2` [Compound 189, (6S,9R)-N-(4-([1,2,5]oxadiazolo[3,4-b]pyridin-6-yl)-5-chloro-2-fluorophenyl)-3-oxo-3,5,6,7,8,9-hexahydro-2H-6,9-epiminocyclohepta[c]pyridine-10-carboxamide] and `O=C(Nc1cc(Cl)c(-c2cnc3nonc3c2)cc1F)N1[C@H]2CC[C@@H]1c1ccnc(F)c1C2` [Compound 190, (5R,8S)-N-(4-([1,2,5]Oxadiazolo[3,4-b]pyridin-6-yl)-5-chloro-2-fluorophenyl)-1-fluoro-6,7,8,9-tetrahydro-5H-5,8-epiminocyclohepta[c]pyridine-10-carboxamide] cannot be ordered by IC50: less than 500 nM for the first, less than 500 nM for the second.

`O=C(Nc1cc(Cl)c(-c2ccsn2)cc1F)N1[C@H]2CC[C@@H]1c1n[nH]c(=O)cc1C2` [Compound 191, (6S,9R)-N-(5-Chloro-2-fluoro-4-(isothiazol-3-yl)phenyl)-3-oxo-3,5,6,7,8,9-hexahydro-2H-6,9-epiminocyclohepta[c]pyridazine-10-carboxamide] and `O=C(Nc1cc(Cl)c(-c2ccc3cncn3c2)cc1F)N1[C@H]2CC[C@@H]1c1n[nH]c(=O)cc1C2` [Compound 197, (6S,9R)-N-(5-Chloro-2-fluoro-4-(imidazo[1,5-a]pyridin-6-yl)phenyl)-3-oxo-3,5,6,7,8,9-hexahydro-2H-6,9-epiminocyclohepta[c]pyridazine-10-carboxamide] cannot be ordered by IC50: less than 500 nM for the first, less than 500 nM for the second.

`O=C(Nc1cc(Cl)c(C(F)(F)F)cc1F)N1[C@@H]2CC[C@H]1[C@H](F)c1c2ccnc1F` [Compound 193, (5R,8S,9R)-N-(5-Chloro-2-fluoro-4-(trifluoromethyl)phenyl)-1,9-difluoro-6,7,8,9-tetrahydro-5H-5,8-epiminocyclohepta[c]pyridine-10-carboxamide] and `O=C(Nc1cc(Cl)c(C(F)(F)F)cc1F)N1[C@@H]2CC[C@H]1c1ccnc(F)c1C2` [Compound 194, (5S,8R)-N-(5-Chloro-2-fluoro-4-(trifluoromethyl)phenyl)-1-fluoro-6,7,8,9-tetrahydro-5H-5,8-epiminocyclohepta[c]pyridine-10-carboxamide] cannot be ordered by IC50: less than 500 nM for the first, less than 500 nM for the second.

`O=C(Nc1cc(Cl)c(-c2ccc3conc3c2)cc1F)N1[C@H]2CC[C@@H]1c1n[nH]c(=O)cc1C2` [Compound 198, (6S,9R)-N-(4-(Benzo[c]isoxazol-6-yl)-5-chloro-2-fluorophenyl)-3-oxo-3,5,6,7,8,9-hexahydro-2H-6,9-epiminocyclohepta[c]pyridazine-10-carboxamide] showed an IC50 of less than 500 nM.

same assay, conditions: 1321N1-hrGPR65 cells, cAMP HTRF, assay pH 7.2; read-out: hGPR65 IC50 (Activity of selected compounds according to the invention)

First: O=C(Nc1cc(Cl)c(-c2ccnnc2)cc1F)N1[C@H]2CC[C@@H]1c1n[nH]c(=O)cc1C2 [Compound 174, (6S,9R)-N-(5-Chloro-2-fluoro-4-(pyridazin-4-yl)phenyl)-3-oxo-3,5,6,7,8,9-hexahydro-2H-6,9-epiminocyclohepta[c]pyridazine-10-carboxamide]
Second: CS(=O)(=O)c1ccc(-c2cc(F)c(NC(=O)N3[C@H]4CC[C@@H]3c3n[nH]c(=O)cc3C4)cc2Cl)cn1 [Compound 180, (6S,9R)-N-(5-Chloro-2-fluoro-4-(6-(methylsulfonyl)pyridin-3-yl)phenyl)-3-oxo-3,5,6,7,8,9-hexahydro-2H-6,9-epiminocyclohepta[c]pyridazine-10-carboxamide]
The IC50 of the first is higher: greater than 5000 nM for the first, 500 to 5000 nM for the second.

`N#Cc1cnccc1-c1cc(F)c(NC(=O)N2[C@H]3CC[C@@H]2c2n[nH]c(=O)cc2C3)cc1Cl` [Compound 179, (6S,9R)-N-(5-Chloro-4-(3-cyanopyridin-4-yl)-2-fluorophenyl)-3-oxo-3,5,6,7,8,9-hexahydro-2H-6,9-epiminocyclohepta[c]pyridazine-10-carboxamide] and `COCc1ccncc1-c1cc(F)c(NC(=O)N2[C@H]3CC[C@@H]2c2n[nH]c(=O)cc2C3)cc1Cl` [Compound 192, (6S,9R)-N-(5-Chloro-2-fluoro-4-(4-(methoxymethyl)pyridin-3-yl)phenyl)-3-oxo-3,5,6,7,8,9-hexahydro-2H-6,9-epiminocyclohepta[c]pyridazine-10-carboxamide] fall in the same range of IC50: 500 to 5000 nM for the first, 500 to 5000 nM for the second.
